Results as given in US4005213A, “2,5-Substituted-1,3,4-thiadiazoles as fungicides” (Schering Aktiengesellschaft, priority 1968, dated 1977).

Key:
Pythium ultimum [1] = assay: Limit concentration of soil-fungicidal effectiveness, Pythium ultimum infested soil, peas (Example 1); format: in vivo; conditions: Globisporangium ultimum, 20 to 23 days, 22°-25° C., germination at least 90% vs steamed soil
Method: (§1) Limit concentrations of the soil-fungicidal effectiveness at homogeneous mixture of the products with the infested soil. Basic condition in the evaluation are a sound root formation without fungus necroses and germination of the seed of at least 90% compared with the result obtained in steamed soil. Per concentration there were seeded 25 grains of peas of the variety "Miracle of Kelvedon" (marrow pea) without a waiting period. the cultivation time in the tests was 20 to 23 days at a temperature of 22°-25° C. Four commercial products were included in the test series.
Pythium ultimum: Steamed compost soil was inoculated with mycelium of Pythium ultimum

Pythium ultimum [2] = assay: Pea test in soil inoculated with Pythium ultimum (Example 2); format: in vivo; design: key to Root evaluation (1-4): 4 = white roots, no necroses … 1 = severe necroses, roots rotted; conditions: for Root evaluation (1-4): 3 weeks; for Number of sound peas after 3 wks.: 25 grains seeded
Method: Steamed compost soil was inoculated with mycelium of Pythium ultimum. […] The following table lists the number of germinated sound peas, the weight of the fresh plant, and a root evaluation after a cultivation period of 3 weeks at 22°-25° C.
4 = white roots, without fungus necroses
3 = white roots, slight fungus necroses
2 = brown roots, more intense fungus necroses
1 = severe fungus necroses, roots rotted

Rhizoctonia solani [3] = assay: Pea test in soil inoculated with Rhizoctonia solani (Example 3); format: in vivo; conditions: 3 weeks
Source text: Steamed compost soil was inoculated with mycelium of Rhizoctonia solani. After homogeneous mixture of the products with the infested soil, the products were present in the form of 20% powder preparations, the seeding of 25 grains of marrow peas of the variety Miracle of Kelvedon per concentration was effected without waiting period in clay dishes holding 1 liter of soil. The table lists the number of germinated sound peas, the weight of the fresh plant, and a root evaluation after a cultivation period of 3 weeks at 22°-25° C.

Pythium ultimum [4] = assay: Fungistatic and fungicidal action on Pythium ultimum of preparations with varying active ingredient percentages (Example 4); format: in vivo; conditions: for Number of sound peas after 3 wks.: 25 grains seeded
Source text: Comparison of the fungistatic and fungicidal action on Pythium ultimum when using preparations with varying active ingredient percentages on siliceous clay. Steamed compost soil was inoculated with mycelium of Pythium ultimum. After forming a homogeneous mixture of the products with the infested soil, […], the seeding of 25 grains of marrow peas of the variety Miracle of Kelvedon per concentration in clay dishes holding 1 liter of soil followed without a waiting period. In the table is stated the number of germinated sound peas, the weight of the fresh plant, and a root evaluation after a cultivation period of 3 weeks at 22°-25° C.

Damping-off Fungi = assay: Cotton seed disinfection in normal compost soil (Example 6); format: in vivo; conditions: 100 mg active ingr. per kg of seed, 15 days, 22°-25° C.
Method: Cotton seeds disinfected with 10% formulations were seeded in normal compost soil (Damping-off Fungi), 25 grains per concentration. After a cultivation time of 15 days at 22°-25° C., the number of germinated sound cotton seedlings and their weight as fresh plants were determined.

Aspergillus niger = assay: Agar test, Aspergillus niger (Example 7); format: cell-based; conditions: 10 ppm in malt extract agar, 5 days at 22° C.; control 100
Method: (§2) The fungicidal action of the agents according to the invention was tested in artificial nutrient media against plant-pathogenic fungi in Petri dishes (agar test). The procedure was to sterilize the medium consisting of 2% malt extract and 1.5% agar-agar powder. Before the solidification of the medium, the active substances were added to it, mixing thoroughly, so that the medium received 10 parts of active substance per million (ppm). After the solidification of the medium, the latter was inoculated with a platinum dropper which contained 100 spores each of the fungi to be tested, and after 5 days at 22° C., an evaluation was made by measuring the diameter of the colonies in mm.

Stemphylium ilicis = assay: Agar test, Stemphylium ilicis (Example 7); format: cell-based; conditions: 10 ppm in malt extract agar, 5 days at 22° C.; control 100
Method: as §2

Meloidogyne incognita = assay: Nematocidal action against root gall nematodes, cucumber (Example 8); format: in vivo; conditions: reduction of attack, 30 days
Method: The products as 20% powder preparations were homogeneously admixed with a compost soil heavily infested by root gall nematodes. Without a waiting period, 20 cucumber seeds per concentration were seeded. After a cultivation time of 30 days at a temperature of 23°-25° C., the nematocidal action was evaluated by counting the root galls formed in the waterbath. The following table states the reduction of attack in percent. In the control, an average of 90 root galls per seedling had formed.

Pyrenochaeta lycopersici = assay: Control of Pyrenochaeta lycopersici, corky root disease of the tomato, open field (Example 9); format: in vivo; conditions: for Weight of single tomato (% of untreated): 0 g = 100%; for Tomatoes per plant / Weight of single tomato / Yield per plant: 10% granulate
Source text: Control of Pyrenochaeta lycopersici, corky root disease of the tomato.
On a naturally infested open field area, 2-dichloromethyl-5-methylsulfonyl-1,3,4-thiadiazole was scattered as a 10% granulate formulation and hoed in 20 cm deep. […] After a reaction period of 3 weeks, tomato plants of the variety "Ronald-M" which were 8 weeks old were set out at a distance from each other of 50 × 70 cm. The harvest results indicated in the table are average values of 40 plants per lot and refer to harvested ripe tomatoes.

[5] = acute oral toxicity in rats; conditions: rat, in vivo
Rhizoctonia solani [6] = assay: Limit concentration of soil-fungicidal effectiveness, Rhizoctonia solani infested soil, peas (Example 1); format: in vivo; conditions: 20 to 23 days, 22°-25° C., germination at least 90% vs steamed soil
Method: as §1
Rhizoctonia solani: Steamed compost soil was inoculated with mycelium of Rhizoctoniz solani.

Botrytis cinerea = assay: Agar test, Botrytis cinerea (Example 7); format: cell-based; conditions: 10 ppm in malt extract agar, 5 days at 22° C.; control 100
Method: as §2

[7] = tested on: Colletotrichum gloeosporioides; assay: Agar test, Colletotrichum gloeosporioides (Example 7); format: cell-based; conditions: 10 ppm in malt extract agar, 5 days at 22° C.; control 100
Method: as §2

Helminthosporium sativum = assay: Agar test, Helminthosporium sativum (Example 7); format: cell-based; conditions: 10 ppm in malt extract agar, 5 days at 22° C.; control 100
Method: as §2

[8] = 10 mg active ingr. per liter of soil
[9] = 20 mg active ingr. per liter of soil
[10] = 30 mg active ingr. per liter of soil
[11] = 5% formulation, 6 mg active ingr. per liter of soil
[12] = 5% formulation, 10 mg active ingr. per liter of soil
[13] = 10% formulation, 10 mg active ingr. per liter of soil
[14] = 20% formulation, 6 mg active ingr. per liter of soil
[15] = 10 g active ingr. per square meter
[16] = 20 g active ingr. per square meter
[17] = 200 mg active ingr. per liter of soil

## CS(=O)(=O)c1nnc(C(Cl)Cl)s1 [Compound 17, 2-dichloromethyl-5-methylsulfonyl-1,3,4-thiadiazole]
Pythium ultimum [1]
  minimal effective concentration: 10 µg/mL
Pythium ultimum [2]; [8]
  Root evaluation (1-4): 4
Pythium ultimum [2]; [9]
  Root evaluation (1-4): 4
  Number of sound peas after 3 wks.: 24
Pythium ultimum [2]; [10]
  Root evaluation (1-4): 4
  Number of sound peas after 3 wks.: 24
Rhizoctonia solani [3]; [9]
  Root evaluation (1-4): 4
Rhizoctonia solani [3]; [10]
  Root evaluation (1-4): 4
Pythium ultimum [4]; [11]
  Weight of fresh plant: 9 g
  Number of sound peas after 3 wks.: 12
Pythium ultimum [4]; [12]
  Weight of fresh plant: 20 g
  Number of sound peas after 3 wks.: 24
Pythium ultimum [4]; 10% formulation, 6 mg active ingr. per liter of soil
  Weight of fresh plant: 15 g
Pythium ultimum [4]; [13]
  Weight of fresh plant: 24 g
  Number of sound peas after 3 wks.: 22
Pythium ultimum [4]; [14]
  Weight of fresh plant: 17 g
  Number of sound peas after 3 wks.: 22
Pythium ultimum [4]; 20% formulation, 10 mg active ingr. per liter of soil
  Weight of fresh plant: 16 g
Damping-off Fungi
  Sound plants in %: 100%
Aspergillus niger
  diameter of the colonies, Aspergillus niger: 0 mm
Stemphylium ilicis
  diameter of the colonies, Stemphylium ilicis: 0 mm
Meloidogyne incognita; 40 mg active substance per liter of soil
  Nematocidal action in % (Meloidogyne incognita): 90%
Meloidogyne incognita; 60 mg active substance per liter of soil
  Nematocidal action in % (Meloidogyne incognita): 94%
Pyrenochaeta lycopersici; [15]
  Weight of single tomato (% of untreated): 110%
  Tomatoes per plant: 27
  Weight of single tomato: 66 g
  Yield per plant: 1774 g
Pyrenochaeta lycopersici; [16]
  Weight of single tomato (% of untreated): 130%
  Tomatoes per plant: 28
  Weight of single tomato: 78 g
  Yield per plant: 2209 g

## CS(=O)(=O)c1nnc(C(Cl)(Cl)Cl)s1 [Compound 21, 2-trichloromethyl-5-methylsulfonyl-1,3,4-thiadiazole]
Pythium ultimum [1]
  minimal effective concentration: 40 µg/mL
Rhizoctonia solani [3]; [8]
  Root evaluation (1-4): 4
Rhizoctonia solani [3]; [9]
  Root evaluation (1-4): 4
Rhizoctonia solani [3]; [10]
  Root evaluation (1-4): 4
Damping-off Fungi
  Sound plants in %: 100%
Aspergillus niger
  diameter of the colonies, Aspergillus niger: 0 mm
Stemphylium ilicis
  diameter of the colonies, Stemphylium ilicis: 0 mm
[5]
  LD50: 717 mg/kg

## CS(=O)(=O)c1nnc(C(F)(F)Cl)s1 [Compound 54, 2-chlorodifluoromethyl-5-methylsulfonyl-1,3,4-thiadiazole]
Pythium ultimum [1]
  minimal effective concentration: 10 µg/mL
Rhizoctonia solani [6]
  minimal effective concentration: 20 µg/mL

## C[S+]([O-])c1nnc(C(F)(F)Cl)s1 (centres unmarked) [Compound 55, 2-chlorodifluoromethyl-5-methylsulfinyl-1,3,4-thiadiazole]
Pythium ultimum [1]
  minimal effective concentration: 10 µg/mL
Rhizoctonia solani [6]
  minimal effective concentration: 10 µg/mL

## S=C([S-])NCCNC(=S)[S-].[Zn+2] [Zinc ethylene-bis-dithiocarbamate, reference compound]
Pythium ultimum [2]; [17]
  Root evaluation (1-4): 1
  Number of sound peas after 3 wks.: 14
Aspergillus niger
  diameter of the colonies, Aspergillus niger: 78 mm
Botrytis cinerea
  diameter of the colonies, Botrytis cinerea: 36 mm
[7]
  diameter of the colonies, Colletotrichum gloeosporioides: 81 mm
Helminthosporium sativum
  diameter of the colonies, Helminthosporium sativum: 50 mm
Stemphylium ilicis
  diameter of the colonies, Stemphylium ilicis: 55 mm
